Twelve molecules from US9868766B2, “Peptides as oxytocin agonists” (Hoffmann-La Roche Inc., priority 2012, dated 2018) can be followed below.

Positions of bridges follow the written chain, without caps; N, C: chain ends. Non-standard residues stand in square brackets, D forms with d. Residues, ends and D or L forms follow the SMILES beside them. Phe(4-NH2) = Nc1ccc(C[C@H](N)C(=O)O)cc1; Hyp = O=C(O)[C@@H]1C[C@@H](O)CN1; αMeL = CC(C)C[C@](C)(N)C(=O)O; Nle = CCCC[C@H](N)C(=O)O; Dab = NCC[C@H](N)C(=O)O; Sar = CNCC(=O)O Bounds are passed on as bounds.

Format in all cases: cell-based
The target of one assay is T1, human V2 receptor (Homo sapiens, UniProt P30518).
T1 construct: expressed in transfected cells
T1 sequence (P30518 whole entry): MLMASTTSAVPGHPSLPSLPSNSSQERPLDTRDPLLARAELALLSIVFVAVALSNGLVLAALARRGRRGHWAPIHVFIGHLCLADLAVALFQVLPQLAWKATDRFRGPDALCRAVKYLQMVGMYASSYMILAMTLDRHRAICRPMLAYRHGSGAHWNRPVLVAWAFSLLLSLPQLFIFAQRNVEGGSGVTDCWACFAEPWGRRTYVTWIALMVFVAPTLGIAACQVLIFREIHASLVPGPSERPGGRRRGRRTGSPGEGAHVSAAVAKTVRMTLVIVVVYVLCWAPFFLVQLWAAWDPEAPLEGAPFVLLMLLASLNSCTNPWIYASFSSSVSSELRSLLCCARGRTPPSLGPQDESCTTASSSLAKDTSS
As to the kind of experiment: Calcium flux assay (FLIPR), agonist mode, CHO cells expressing human V2 + Gqs5. Conditions: for EC50: CHO cells stably expressing human V2 + chimeric Gqs5, calcium flux, read-out: hV2 EC50; for Emax: CHO, read-out: hV2 efficacy (%). From the text:
(§1) Chines Hamster Ovary (CHO) cells were transfected with expression plasmids encoding either the human V1a, the human Oxytocin (OTR) or the humanV2 receptor, the later in combination with the chimeric Gqs5 G protein to redirect the signal to Calcium flux. Stable cells were cloned by limiting dilution to yield monoclonal cell lines expressing either human V1a, human V2+Gqs5 or human OTR receptors and selected based on functional responses detected on a fluorometric imaging plate reader (FLIPR) detecting Calcium flux in the cell after receptor activation. The stable cell lines were grown in F-12 K Nutrient Mixture (Kaighns Modification), containing 10% foetal bovine serum (FBS), 1% penicillin-streptomycin, 1% L-glutamate, 200 ug/ml Geneticin at 37° C. in a 10% CO2 incubator at 95% humidity.
(§2) On the afternoon before the assay, cells were plated at a density of 50,000 cells/well into black 96 well plates with clear bottoms to allow cell inspection and fluorescence measurements from the bottom of each well. The density of cells was sufficient to yield a confluent monolayer the next day. Hanks balanced salt solution, without phenol red, containing 20 mM HEPES (pH 7.3) and 2.5 mM probenecid (assay buffer) was prepared fresh for each experiment. Compound dilutions were made using a Beckman Biomek 2000 laboratory automation workstation, in assay buffer containing 1% DMSO. The dye-loading buffer consisted of a final concentration of 2 μM Fluo-4-AM (dissolved in DMSO and pluronic acid) in assay buffer. The existing culture media was removed from the wells and 100 μl of the dye-loading buffer was added to each well and incubated for approximately 60 min at 37° C. in a 5% CO2 incubator at 95% humidity. Once dye-loaded, the cells were washed thoroughly on an Embla cell washer with the assay buffer to remove any unincorporated dye. Exactly 100 μl assay buffer was left in each well.
(§3) Each 96 well plate containing dye-loaded cells was placed into the FLIPR machine and the laser intensity set to a suitable level to detect low basal fluorescence. To test compounds as agonists, 25 μl diluted compound was added to the plate 10 seconds into the fluorescent measurements and fluorescent response was recorded for 5 minutes. The fluorescence data was normalized to the endogenous full agonist dose-response set at 100% for the maximum response and 0% for the minimum. Each agonist concentration-response curve was constructed using a four parameter logistic equation with Microsoft Excel XLFit as follows: Y=Minimum+((Maximum−Minimum)/(1+10^(Log EC50-X)nH)), where y is the % normalized fluorescence, minimum is the minimum y, maximum is the maximum y, log EC50 is the log10 concentration which produces 50% of the maximum induced fluorescence, x is the log10 of the concentration of the agonist compound and H is the slope of the curve (the Hill Coefficient). The maximum value gives the efficacy of the agonist test compound in percentage. The concentration of agonist that produced a half-maximal response is represented by the EC50 value, the logarithm of which yielded the pEC50 value.
For orientation: Calcium assays in cells follow changes in intracellular calcium, usually with a dye or a luminescent sensor.

A further assay has as its target T2, human V1a receptor (Homo sapiens, UniProt P37288).
T2 construct: expressed in transfected cells
As to the kind of experiment: Calcium flux assay (FLIPR), agonist mode, CHO cells expressing human V1a. The conditions noted are these: CHO cells stably expressing human V1a; calcium flux; read-out: hV1a EC50.
From the text: as §1, §2, §3

The target of assay [1] is T3, human Oxytocin (OTR) receptor (Homo sapiens, UniProt P30559).
T3 construct: expressed in transfected cells
T3 sequence (P30559 1-389): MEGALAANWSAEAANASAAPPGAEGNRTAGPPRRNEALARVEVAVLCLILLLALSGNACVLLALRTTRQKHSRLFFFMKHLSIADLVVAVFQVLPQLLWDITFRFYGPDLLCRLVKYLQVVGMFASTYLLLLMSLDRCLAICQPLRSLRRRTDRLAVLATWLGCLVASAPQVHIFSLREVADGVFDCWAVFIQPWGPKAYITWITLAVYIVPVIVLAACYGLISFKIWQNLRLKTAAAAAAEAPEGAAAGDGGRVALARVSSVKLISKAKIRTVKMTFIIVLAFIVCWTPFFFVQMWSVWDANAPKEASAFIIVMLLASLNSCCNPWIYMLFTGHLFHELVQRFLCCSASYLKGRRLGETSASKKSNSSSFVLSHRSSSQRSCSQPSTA
As to the kind of experiment: Calcium flux assay (FLIPR), agonist mode, CHO cells expressing human OTR. Conditions: for EC50: CHO cells stably expressing human OTR, calcium flux, read-out: hOT EC50; for Emax: CHO, read-out: hOT efficacy (%); for Emax / hOT efficacy (%): maximum response normalized to endogenous full agonist = 100%.
From the text: Chines Hamster Ovary (CHO) cells were transfected with expression plasmids encoding either the human V1a, the human Oxytocin (OTR) or the humanV2 receptor, the later in combination with the chimeric Gqs5 G protein to redirect the signal to Calcium flux. Stable cells were cloned by limiting dilution to yield monoclonal cell lines expressing either human V1a, human V2+Gqs5 or human OTR receptors and selected based on functional responses detected on a fluorometric imaging plate reader (FLIPR) detecting Calcium flux in the cell after receptor activation.
as §2, with “The existing culture media was removed from the wells and 100 μl of the dye-loading buffer was added to each well and incubated for approximately 60 min at 37° C. in a 5% CO2 incubator at 95% humidity.” left out
Each 96 well plate containing dye-loaded cells was placed into the FLIPR machine and the laser intensity set to a suitable level to detect low basal fluorescence. To test compounds as agonists, 25 μl diluted compound was added to the plate 10 seconds into the fluorescent measurements and fluorescent response was recorded for 5 minutes. The fluorescence data was normalized to the endogenous full agonist dose-response set at 100% for the maximum response and 0% for the minimum. […] The concentration of agonist that produced a half-maximal response is represented by the EC50 value, the logarithm of which yielded the pEC50 value.

The mark [2] stands for this setting: maximum response normalized to endogenous full agonist = 100%.

T2 sequence (P37288 whole entry): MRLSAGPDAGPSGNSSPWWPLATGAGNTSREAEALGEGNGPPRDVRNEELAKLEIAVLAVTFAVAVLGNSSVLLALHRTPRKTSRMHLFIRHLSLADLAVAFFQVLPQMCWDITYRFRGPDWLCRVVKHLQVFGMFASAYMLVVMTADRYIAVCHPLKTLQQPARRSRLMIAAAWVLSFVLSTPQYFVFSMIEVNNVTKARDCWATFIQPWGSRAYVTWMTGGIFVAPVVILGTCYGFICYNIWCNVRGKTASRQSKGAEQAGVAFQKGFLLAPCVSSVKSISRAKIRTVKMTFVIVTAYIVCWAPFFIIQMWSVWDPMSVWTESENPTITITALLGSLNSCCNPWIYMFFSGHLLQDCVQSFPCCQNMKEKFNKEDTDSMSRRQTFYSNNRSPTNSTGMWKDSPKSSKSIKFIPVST

In the case of `CC[C@H](C)[C@@H]1NC(=O)[C@H](Cc2ccc(O)cc2)NC(=O)CNC(=O)CC[C@@H](C(=O)N2C[C@H](O)C[C@H]2C(=O)N[C@@H](CC(C)C)C(=O)NCC(N)=O)NC(=O)[C@H](CC(N)=O)NC(=O)[C@H](CCC(N)=O)NC1=O` [Example 45] (GYIQNE[Hyp]LG-NH2; lactam N-6), the concentration for a half-maximal effect (EC50) (in general, the concentration that produces a half-maximal response) on human V2 receptor was 3810 nM; on human V1a receptor, over 27000 nM; in assay [1], 0.6 nM. Also, the Emax at human V2 receptor (setting [2]) was determined as 91%; in assay [1], 113%.

Consider `CC[C@H](C)[C@@H]1NC(=O)[C@H](Cc2ccc(N)cc2)NC(=O)CNC(=O)CC[C@@H](C(=O)N(C)CC(=O)N[C@@H](CC(C)C)C(=O)NCC(N)=O)NC(=O)[C@H](CC(N)=O)NC(=O)[C@H](CCC(N)=O)NC1=O` [Example 2] (G[Phe(4-NH2)]IQNE[Sar]LG-NH2; lactam N-6), for which the concentration for a half-maximal effect (EC50) on human V2 receptor was 7910 nM; at human V1a receptor, over 27000 nM; in assay [1], 9 nM. On human V2 receptor (setting [2]), the Emax is 74%. In addition, the “hOT efficacy (%)” value in assay [1] is recorded as 112%.

Turning to `CC[C@H](C)[C@@H]1NC(=O)[C@H](Cc2ccc(O)cc2)NC(=O)CNC(=O)CC[C@@H](C(=O)N(C)CC(=O)N[C@@H](CO)C(=O)NCC(N)=O)NC(=O)[C@H](CC(N)=O)NC(=O)[C@H](CCC(N)=O)NC1=O` [Example 28] (GYIQNE[Sar]SG-NH2; lactam N-6), the figures for the EC50 (at human V2 receptor; on human V1a receptor; in assay [1]) were 4170 nM, over 10000 nM and 5 nM, respectively. In addition, on human V2 receptor (setting [2]), the Emax came to 87%. Further, the “hOT efficacy (%)” value in assay [1] was 122%.

For the molecule `CC[C@H](C)[C@H](NC(=O)CN(C)C(=O)[C@@H]1CCC(=O)NCC(=O)N[C@@H](Cc2ccc(O)cc2)C(=O)N[C@@H]([C@@H](C)CC)C(=O)N[C@@H](CCC(N)=O)C(=O)N[C@@H](CC(N)=O)C(=O)N1)C(=O)NCC(N)=O` [Example 33] (GYIQNE[Sar]IG-NH2; lactam N-6), the half-maximal effective concentration (EC50) at human V2 receptor is 3820 nM; at human V1a receptor it was over 27000 nM; in assay [1], 2 nM. Also, the figures for the Emax (on human V2 receptor (setting [2]); in assay [1]) were 101% and 119%, respectively.

As for `CC[C@H](C)[C@@H]1NC(=O)[C@H](Cc2ccc(O)cc2)NC(=O)CNC(=O)CC[C@@H](C(=O)N2CCC[C@H]2C(=O)N[C@@H](CC(C)C)C(=O)NCC(N)=O)NC(=O)[C@H](CC(N)=O)NC(=O)[C@H](CCC(N)=O)NC1=O` [Example 24] (GYIQNEPLG-NH2; lactam N-6), the EC50 on human V2 receptor is 2510 nM; at human V1a receptor, over 27000 nM; in assay [1], 2.2 nM. Also, the Emax at human V2 receptor (setting [2]) came out at 98%; in assay [1] it was 152%.

On to `CCCC[C@H](NC(=O)CN(C)C(=O)[C@@H]1CCC(=O)NCC(=O)N[C@@H](Cc2ccc(O)cc2)C(=O)N[C@@H]([C@@H](C)CC)C(=O)N[C@@H](CCC(N)=O)C(=O)N[C@@H](CC(N)=O)C(=O)N1)C(=O)NCC(N)=O` [Example 40] (GYIQNE[Sar][Nle]G-NH2; lactam N-6), for which the results for the EC50 (at human V2 receptor; at human V1a receptor; in assay [1]) were 2190 nM, over 27000 nM and 0.4 nM, respectively. Further, the Emax at human V2 receptor (setting [2]) came to 117%; in assay [1] it was 124%.

With `CC[C@H](C)[C@@H]1NC(=O)[C@H](Cc2ccc(O)cc2)NC(=O)CNC(=O)CC[C@@H](C(=O)N(C)CC(=O)N[C@@H](CCC(=O)O)C(=O)NCC(N)=O)NC(=O)[C@H](CC(N)=O)NC(=O)[C@H](CCC(N)=O)NC1=O` [Example 29] (GYIQNE[Sar]EG-NH2; lactam N-6), the results for the EC50 (at human V2 receptor; on human V1a receptor; in assay [1]) were 10700 nM, over 10000 nM and 32 nM, respectively. In addition, at human V2 receptor (setting [2]), the Emax was 39%. For the same molecule, the “hOT efficacy (%)” value in assay [1] is listed as 130%.

With `CC[C@H](C)[C@@H]1NC(=O)[C@H](Cc2ccc(O)cc2)NC(=O)CNC(=O)CC[C@@H](C(=O)N(C)CC(=O)N[C@@H](CCN)C(=O)NCC(N)=O)NC(=O)[C@H](CC(N)=O)NC(=O)[C@H](CCC(N)=O)NC1=O` [Example 30] (GYIQNE[Sar][Dab]G-NH2; lactam N-6), the EC50 was 142 nM on human V2 receptor, over 10000 nM on human V1a receptor and 6 nM in assay [1]. Moreover, the “hV2 efficacy (%)” value on human V2 receptor (setting [2]) is 104%. The Emax in assay [1] turned out to be 119%.

`CC[C@H](C)[C@@H]1NC(=O)[C@H](Cc2ccc(O)cc2)NC(=O)CNC(=O)CC[C@@H](C(=O)N(C)CC(=O)N[C@@H](CC(C)C)C(=O)NCC(N)=O)NC(=O)[C@H](CC(N)=O)NC(=O)[C@H](CCC(N)=O)NC1=O` [Example 13] (GYIQNE[Sar]LG-NH2; lactam N-6): the concentration giving a half-maximal response (EC50) on human V2 receptor is 5110 nM; at human V1a receptor, over 27000 nM; in assay [1], 0.2 nM. Further, the Emax on human V2 receptor (setting [2]) is 97%; in assay [1], 111%.

In the case of `CC[C@H](C)[C@@H]1NC(=O)[C@H](Cc2ccc(O)cc2)NC(=O)CNC(=O)CC[C@@H](C(=O)N(C)CC(=O)N[C@@](C)(CC(C)C)C(=O)NCC(N)=O)NC(=O)[C@H](CC(N)=O)NC(=O)[C@H](CCC(N)=O)NC1=O` [Example 51] (GYIQNE[Sar][αMeL]G-NH2; lactam N-6), the half-maximal effective concentration (EC50) at human V1a receptor is over 27000 nM. Moreover, in assay [1], the EC50 was 13 nM and the “hOT efficacy (%)” value is 97%.

Take `CC[C@H](C)[C@@H]1NC(=O)[C@H](Cc2ccc(O)cc2)NC(=O)CNC(=O)CC[C@@H](C(=O)NCC(=O)N[C@@H](CC(C)C)C(=O)NCC(N)=O)NC(=O)[C@H](CC(N)=O)NC(=O)[C@H](CCC(N)=O)NC1=O` [Example 6] (GYIQNEGLG-NH2; lactam N-6): the EC50 at human V1a receptor was over 27000 nM; in assay [1], 11 nM. The “hOT efficacy (%)” value in assay [1] came out at 95%.

For `CC[C@H](C)[C@@H]1NC(=O)[C@H](Cc2ccc(O)cc2)NC(=O)CNC(=O)CC[C@@H](C(=O)N2CCC[C@H]2C(=O)N[C@H](CC(C)C)C(=O)NCC(N)=O)NC(=O)[C@H](CC(N)=O)NC(=O)[C@H](CCC(N)=O)NC1=O` [Example 15] (GYIQNEP[dL]G-NH2; lactam N-6), at human V1a receptor, the half-maximal effective concentration (EC50) is over 12000 nM. In assay [1], the EC50 was 52 nM and the “hOT efficacy (%)” value was 102%.
